From paper PMC10167227, “Lipid flipping in the omega-3 fatty-acid transporter” (Nature Communications, 2023)

Target: T1, drMfsd2a (Danio rerio isoform B Mfsd2a) (Danio rerio, UniProt Q6DEJ6, N214Q/N225Q/N509Q)
T1 construct: gene mfsd2ab; recombinant in Sf-9 insect cells, N-terminal 10xHis tag removed by TEV; truncated at D22 and D509; DDM-purified
T1 sequence (Q6DEJ6 22-509 N214Q/N225Q/N509Q): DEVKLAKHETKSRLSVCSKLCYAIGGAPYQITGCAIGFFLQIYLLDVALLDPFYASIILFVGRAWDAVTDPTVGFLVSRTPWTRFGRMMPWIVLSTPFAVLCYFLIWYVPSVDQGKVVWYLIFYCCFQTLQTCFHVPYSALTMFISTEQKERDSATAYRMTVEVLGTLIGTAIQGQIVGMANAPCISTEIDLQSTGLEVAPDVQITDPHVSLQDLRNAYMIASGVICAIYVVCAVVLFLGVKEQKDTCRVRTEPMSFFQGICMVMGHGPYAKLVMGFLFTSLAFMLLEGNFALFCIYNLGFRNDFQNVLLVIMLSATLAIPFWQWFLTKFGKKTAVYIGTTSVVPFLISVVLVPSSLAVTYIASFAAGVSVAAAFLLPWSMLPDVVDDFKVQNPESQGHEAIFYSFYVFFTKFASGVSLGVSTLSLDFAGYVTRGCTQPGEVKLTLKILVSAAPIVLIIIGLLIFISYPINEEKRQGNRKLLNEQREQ
Test: single-particle cryo-EM structures of Fab complex
Type: binding
Conditions: co-purified endogenous lipid; identity modelled into lipid-like densities at four positions (1A, 1B, 2B, 3C); inward-facing; pH 8.0, 150 mM NaCl, 0.02% DDM

SMILES: CC/C=C\C/C=C\C/C=C\CCCCCCCC(=O)OC[C@@H](O)COP(=O)([O-])OCC[N+](C)(C)C [ALA-LPC]
- single-particle cryo-EM structures of Fab complex: We therefore modeled ALA-LPC into the four distinct lipid-like densities
